This note sets out measurements from ChEMBL document CHEMBL1149505 (Bioorg Med Chem Lett, 2006).

A value given as a limit tells only on which side of the number the result lay.

Assay [1] has as its target Neuronal acetylcholine receptor; alpha4/beta2 (Rattus norvegicus, UniProt P09483+P12390). The experiment in a line: Inhibition of [3H]NIC binding to alpha-4-beta-2 nAChR in rat brain membrane. The assay is classed as cell membranes.
For assay [2], the target named is Neuronal acetylcholine receptor subunit alpha-7 (Rattus norvegicus, UniProt Q05941). The experiment in a line: Inhibition of [3H]MLA binding to alpha-7 nAChR in rat brain membrane. The assay is classed as cell membranes.
Assay [3] has as its target Sodium-dependent dopamine transporter (Rattus norvegicus, UniProt P23977). The experiment in a line: Inhibition of [3H]DA uptake at DAT in rat striatal synaptosomes. The assay is classed as subcellular, Brain.
Assay [4] addresses Sodium-dependent serotonin transporter (Rattus norvegicus, UniProt P31652). Briefly: Inhibition of [3H]5-HT uptake at SERT in rat hippocampal synaptosomes. The assay is classed as subcellular, Hippocampus.
The target of assay [5] is Synaptic vesicular amine transporter (Rattus norvegicus, UniProt Q01827). The experiment in a line: Inhibition of [3H]DTBZ binding to VMAT2 in rat synaptic vesicle membrane. The assay is classed as cell membranes.
Synaptic vesicular amine transporter, sequence (Q01827 whole entry): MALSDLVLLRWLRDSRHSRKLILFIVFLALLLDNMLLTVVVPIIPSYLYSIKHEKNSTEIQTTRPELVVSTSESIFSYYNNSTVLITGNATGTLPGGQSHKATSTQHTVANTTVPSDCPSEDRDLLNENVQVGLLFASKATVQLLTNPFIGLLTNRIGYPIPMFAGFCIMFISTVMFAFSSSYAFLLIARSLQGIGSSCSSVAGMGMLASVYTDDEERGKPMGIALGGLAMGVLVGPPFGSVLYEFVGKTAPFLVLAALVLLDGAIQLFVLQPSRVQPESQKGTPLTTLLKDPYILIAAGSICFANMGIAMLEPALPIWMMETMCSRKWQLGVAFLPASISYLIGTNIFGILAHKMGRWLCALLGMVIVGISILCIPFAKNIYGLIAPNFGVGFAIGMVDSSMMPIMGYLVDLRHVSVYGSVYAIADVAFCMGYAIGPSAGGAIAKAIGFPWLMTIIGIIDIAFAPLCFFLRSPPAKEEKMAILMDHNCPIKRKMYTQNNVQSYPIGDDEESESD

Sodium-dependent dopamine transporter, sequence (P23977 whole entry): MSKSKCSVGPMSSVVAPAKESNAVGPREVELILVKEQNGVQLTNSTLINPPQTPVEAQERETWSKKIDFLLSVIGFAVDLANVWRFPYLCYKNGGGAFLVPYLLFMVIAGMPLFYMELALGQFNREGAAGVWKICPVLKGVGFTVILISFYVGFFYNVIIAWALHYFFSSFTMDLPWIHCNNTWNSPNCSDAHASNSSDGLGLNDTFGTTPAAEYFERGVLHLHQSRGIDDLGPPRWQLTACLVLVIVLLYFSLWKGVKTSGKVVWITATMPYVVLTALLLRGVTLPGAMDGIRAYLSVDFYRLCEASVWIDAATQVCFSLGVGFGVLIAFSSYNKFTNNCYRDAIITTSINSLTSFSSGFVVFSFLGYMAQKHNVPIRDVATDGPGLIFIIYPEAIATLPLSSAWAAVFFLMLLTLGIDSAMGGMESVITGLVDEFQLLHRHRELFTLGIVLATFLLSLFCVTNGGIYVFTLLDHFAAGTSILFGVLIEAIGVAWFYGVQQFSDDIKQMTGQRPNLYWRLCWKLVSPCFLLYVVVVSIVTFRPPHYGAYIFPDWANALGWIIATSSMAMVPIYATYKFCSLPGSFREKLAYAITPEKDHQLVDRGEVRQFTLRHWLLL
Neuronal acetylcholine receptor; alpha4/beta2, sequence (P09483 whole entry): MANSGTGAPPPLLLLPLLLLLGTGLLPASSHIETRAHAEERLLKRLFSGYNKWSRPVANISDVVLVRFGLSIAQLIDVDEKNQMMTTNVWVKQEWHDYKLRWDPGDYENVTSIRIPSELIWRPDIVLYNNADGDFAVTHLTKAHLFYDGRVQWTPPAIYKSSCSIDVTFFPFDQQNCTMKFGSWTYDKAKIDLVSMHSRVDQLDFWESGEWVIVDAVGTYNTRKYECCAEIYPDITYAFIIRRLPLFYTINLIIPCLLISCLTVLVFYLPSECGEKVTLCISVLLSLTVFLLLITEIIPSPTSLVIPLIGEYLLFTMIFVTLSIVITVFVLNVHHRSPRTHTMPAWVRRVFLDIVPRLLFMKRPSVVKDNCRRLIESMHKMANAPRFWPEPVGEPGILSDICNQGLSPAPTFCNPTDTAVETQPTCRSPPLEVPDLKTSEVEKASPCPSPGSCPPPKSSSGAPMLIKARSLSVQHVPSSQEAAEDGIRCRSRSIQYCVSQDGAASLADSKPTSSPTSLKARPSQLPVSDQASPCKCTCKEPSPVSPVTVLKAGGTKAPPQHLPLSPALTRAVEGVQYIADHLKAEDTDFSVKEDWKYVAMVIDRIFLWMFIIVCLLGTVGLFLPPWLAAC
Neuronal acetylcholine receptor; alpha4/beta2, sequence (P12390 whole entry): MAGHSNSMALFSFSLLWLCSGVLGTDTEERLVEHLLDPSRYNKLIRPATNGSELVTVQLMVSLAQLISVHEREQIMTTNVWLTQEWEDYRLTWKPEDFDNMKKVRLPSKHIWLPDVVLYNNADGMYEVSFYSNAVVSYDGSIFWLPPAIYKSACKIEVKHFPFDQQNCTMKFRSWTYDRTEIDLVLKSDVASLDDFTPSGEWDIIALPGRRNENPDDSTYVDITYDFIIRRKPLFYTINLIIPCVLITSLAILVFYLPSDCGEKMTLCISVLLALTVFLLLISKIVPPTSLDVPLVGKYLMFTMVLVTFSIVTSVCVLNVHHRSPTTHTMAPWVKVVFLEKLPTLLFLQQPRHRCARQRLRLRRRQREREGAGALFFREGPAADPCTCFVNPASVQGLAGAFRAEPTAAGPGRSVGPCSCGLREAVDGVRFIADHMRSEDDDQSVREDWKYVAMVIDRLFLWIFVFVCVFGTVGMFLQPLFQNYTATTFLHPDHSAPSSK
Sodium-dependent serotonin transporter, sequence (P31652 whole entry): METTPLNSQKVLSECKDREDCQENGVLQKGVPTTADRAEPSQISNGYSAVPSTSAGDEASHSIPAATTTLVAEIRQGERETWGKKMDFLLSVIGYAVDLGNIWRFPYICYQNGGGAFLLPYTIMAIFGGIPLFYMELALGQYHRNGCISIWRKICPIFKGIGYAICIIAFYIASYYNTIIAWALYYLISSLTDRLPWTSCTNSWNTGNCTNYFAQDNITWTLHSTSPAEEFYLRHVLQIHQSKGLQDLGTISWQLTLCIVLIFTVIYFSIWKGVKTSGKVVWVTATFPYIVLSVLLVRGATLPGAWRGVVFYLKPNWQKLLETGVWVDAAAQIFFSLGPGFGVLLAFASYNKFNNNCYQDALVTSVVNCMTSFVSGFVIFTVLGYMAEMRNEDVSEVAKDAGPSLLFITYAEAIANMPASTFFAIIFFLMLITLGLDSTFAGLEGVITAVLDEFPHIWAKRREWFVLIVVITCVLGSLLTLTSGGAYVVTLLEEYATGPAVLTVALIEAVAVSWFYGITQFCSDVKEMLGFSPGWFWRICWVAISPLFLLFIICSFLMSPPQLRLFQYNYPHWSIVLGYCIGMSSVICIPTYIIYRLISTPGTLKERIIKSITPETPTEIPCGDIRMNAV
Neuronal acetylcholine receptor subunit alpha-7, sequence (Q05941 whole entry): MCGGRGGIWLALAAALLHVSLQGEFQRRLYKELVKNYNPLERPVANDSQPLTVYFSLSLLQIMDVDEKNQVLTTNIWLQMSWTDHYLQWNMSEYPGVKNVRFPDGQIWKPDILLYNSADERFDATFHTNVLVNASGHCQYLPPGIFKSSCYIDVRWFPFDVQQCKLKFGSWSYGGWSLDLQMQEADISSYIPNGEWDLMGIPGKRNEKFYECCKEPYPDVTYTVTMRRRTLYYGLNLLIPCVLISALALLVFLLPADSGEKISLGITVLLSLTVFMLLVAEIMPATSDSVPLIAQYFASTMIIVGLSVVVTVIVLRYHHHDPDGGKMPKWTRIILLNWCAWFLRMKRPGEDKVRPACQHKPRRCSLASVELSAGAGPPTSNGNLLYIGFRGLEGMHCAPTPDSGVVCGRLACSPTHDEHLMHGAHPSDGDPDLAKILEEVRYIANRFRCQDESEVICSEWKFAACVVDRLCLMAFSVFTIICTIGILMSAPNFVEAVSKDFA

Usually Ki stands for a dissociation constant, usually derived from enzyme kinetics or from competition with a known ligand. Take `CN1[C@@H](CCc2ccccc2)CCC[C@H]1C[C@H](O)c1ccccc1`: the Ki was 1.77 µM in assay [1]; 39.3 µM in assay [2]; 1.39 µM in assay [3]; 4.27 µM in assay [4]; 3.09 µM in assay [5].
Usually IC50 stands for the concentration needed to halve the response being measured. A low value points to greater potency. Molecule `CN1[C@H](C[C@H](O)c2ccccc2)CCC[C@@H]1/C=C/c1ccccc1` came in with a 50% inhibitory concentration (IC50) in assay [2] above 100 µM. Moreover, the values for the Ki in assay [3] and in assay [4] were 0.11 µM and 19 µM, respectively.
For `CN1[C@@H](CCc2ccccc2)CCC[C@H]1C[C@@H](O)c1ccccc1`, the half-inhibitory concentration (IC50) in assay [1] and in assay [2] was above 100 µM each time. The inhibitory constant (Ki) turned out to be 0.57 µM in assay [3], 7.3 µM in assay [4] and 6.6 µM in assay [5].
In the case of `CN1[C@@H](C[C@H](O)c2ccccc2)CCC[C@H]1/C=C/c1ccccc1`, the IC50 in assay [1] and in assay [2] was above 100 µM throughout. Moreover, the inhibition constant Ki in assay [3] was determined as 0.96 µM; in assay [4], 3.75 µM.
On to `CCC1(O)CC2c3cc(OC)c(OC)cc3CCN2CC1CC(C)C` (configuration not stated), for which, in assay [5], the Ki was 0.028 µM.
On to `CN1[C@H](C[C@@H](O)c2ccccc2)CCC[C@@H]1/C=C/c1ccccc1`, for which the IC50 in assay [1] and in assay [2] was above 100 µM in each case. The Ki was 0.29 µM in assay [3] and 7.5 µM in assay [4].
With `CN1[C@H](CCc2ccccc2)CCC[C@@H]1C[C@H](O)c1ccccc1`, the inhibition constant Ki in assay [1] was determined as 33.6 µM; in assay [3], 1.26 µM; in assay [4], 2.22 µM; in assay [5], 3.01 µM. For the same molecule, the IC50 in assay [2] was above 100 µM.
Consider `CN1[C@@H](C[C@@H](O)c2ccccc2)CCC[C@H]1/C=C/c1ccccc1`, for which the inhibition constant (Ki) in assay [1] came out at 4.19 µM; in assay [2], 1.7 µM; in assay [4], 0.044 µM.
Take `CN1[C@H](CCc2ccccc2)CCC[C@@H]1C[C@@H](O)c1ccccc1` [8R-hydroxylobelane]: the Ki in assay [1] is 2.36 µM; in assay [2], 1.21 µM; in assay [3], 1.88 µM; in assay [4] it was 0.15 µM; in assay [5] it was 1.98 µM.
With `CN1[C@@H](CC(=O)c2ccccc2)CCC[C@H]1C[C@H](O)c1ccccc1` [LOBELINE], the results for the inhibition constant (Ki) in assay [3] and in assay [4] were 28.2 µM and 46.8 µM, respectively.
